Results published in patent US4584377A, “Novel Fredericamycin A derivatives” (SS Pharmaceutical Co., Ltd., priority 1983, dated 1986).
Converted amounts (≈) assume the structure as drawn.

What was measured:
[1] = physchem; type: physicochemical; conditions: 10 μg/ml in dimethylsulfoxide/physiological saline
Protocol: The stability of some Fredericamycin A derivatives and Fredericamycin A in their aqueous solutions were tested in accordance with the following procedures.
The test compounds were individually dissolved in dimethylsulfoxide, followed by dilution of the resulting solutions with physiological saline to adjust the final concentrations of the test compounds and Fredericamycin to 10 μg/ml respectively. The thus-prepared test solutions were then subjected to high performance liquid chromatography after predetermined time intervals to measure the percentage remainders of the test compounds.

[2] = test system: Ehrlich carcinoma; experiment: Antitumor effect, survival of tumor-inoculated mice; type: in vivo, ICR mice; conditions: intraperitoneally, once a day for 10 days
[3] = test system: Meth-A fibrosarcoma; experiment: as above; type: in vivo, CDF1 mice; conditions: intraperitoneally, once a day for 10 days
Protocol: (§1) Antitumor effects of some Fredericamycin A derivatives against Ehrlich carcinoma, Meth-A fibrosarcoma and mouse leukemia P-388 were tested in accordance with the following procedures. Antitumor effects against Ehrlich carcinoma and Meth-A fibrosarcoma are expressed by percentage of mean survival time of test and control animals. Antitumor effects against P-388 are expressed by percentage of median survival time of test and control animals.
(§2) (ii) Meth-A fibrosarcoma and mouse leukemia P-388:
(§3) 1×10^6 tumor cells were inoculated to CDF1 mice (.male., Charles River Japan Inc.) intraperitoneally. Each tested compound was given intraperitoneally once a day for 10 days from 1 day after tumor inoculation.

[4] = test system: mouse leukemia P-388; experiment: as above; type: in vivo, CDF1 mice; conditions: intraperitoneally, once a day for 10 days
Protocol: as §1, §2, §3

[5] = test system: Piricularia oryzae IAM 5016; experiment: microbe, parasite or virus in culture; type: cell-based; conditions: 120 h; read-out: Minimum inhibitory concentration MIC
[6] = test system: Staphylococcus epidermidis ATCC 12228; experiment: MIC, antibacterial activity (agar culture); type: cell-based; conditions: ATCC12228, 37° C., 18-20 hours, Mueller-Hinton agar, read-out: Minimum inhibitory concentration MIC
[7] = Mus musculus, ip, 240 h, 0.5 mg/kg/day, read-out: percentage of mean survival time of test and control animals
[8] = Mus musculus, ip, 240 h, 1.0 mg/kg/day, read-out: percentage of mean survival time of test and control animals
[9] = Mus musculus, ip, 240 h, 2.0 mg/kg/day, read-out: percentage of mean survival time of test and control animals

Compound | response vs control in vivo at 0.5 mg/kg/day [2, 7] [%] | response vs control in vivo at 1 mg/kg/day [2, 8] [%] | response vs control in vivo at 2 mg/kg/day [2, 9] [%] | MIC [5] [µg/mL] | MIC [6] [µg/mL] | percentage of mean survival time of test and control animals ([2]; 0.5 mg/kg/day) | percentage of mean survival time of test and control animals ([2]; 1.0 mg/kg/day) | percentage of mean survival time of test and control animals ([2]; 2.0 mg/kg/day) [%] | other results
CCCCCCCCCCCC(=O)Oc1c2c(c(OC(=O)CCCCCCCCCCC)c3c1C(=O)C1(CCc4cc5cc(CCCCC)[nH]c(=O)c5c(O)c41)C3=O)C(=O)C(OC)=CC2=O (centres unmarked) [Compound 21] | – | – | – | – | – | – | – | – | Percentage remainder ([1]; 0 hr.): 100%; remaining at 3 h ([1]; 3 hrs., read-out: Percentage remainder): 95.3%; remaining at 6 h ([1]; 6 hrs., read-out: Percentage remainder): 92.2%; remaining at 24 h ([1]; 24 hrs., read-out: Percentage remainder): 87.3%; remaining at 48 h ([1]; 48 hrs., read-out: Percentage remainder): 80.5%; remaining at 72 h ([1]; 72 hrs., read-out: Percentage remainder): 74.8%
C/C=C/C=C/c1cc2cc3c(c(O)c2c(=O)[nH]1)C1(CC3)C(=O)c2c(OC(=O)c3ccc(Cl)cc3)c3c(c(OC(=O)c4ccc(Cl)cc4)c2C1=O)C(=O)C(OC)=CC3=O (centres unmarked) [Compound 11] | > 139 | > 198 | > 260 | – | – | – | – | – | –
CCCCCc1cc2cc3c(c(O)c2c(=O)[nH]1)C1(CC3)C(=O)c2c(O)c3c(c(O)c2C1=O)C(=O)C(OC)=CC3=O (centres unmarked) [Compound 17, tetrahydrofredericamycin A] | 250 | – | – | – | – | – | – | – | response vs control in vivo at 0.125 mg/kg/day ([2]; Mus musculus, ip, 240 h, 0.125 mg/kg/day, read-out: percentage of mean survival time of test and control animals): 187%; response vs control in vivo at 0.25 mg/kg/day ([2]; Mus musculus, ip, 240 h, 0.25 mg/kg/day, read-out: percentage of mean survival time of test and control animals): 248%; percentage of mean survival time of test and control animals ([3]; 0.25 mg/kg/day): 102%; percentage of mean survival time of test and control animals ([3]; 0.5 mg/kg/day): 129%; percentage of mean survival time of test and control animals ([3]; 1.0 mg/kg/day): 164%; percentage of mean survival time of test and control animals ([3]; 2.0 mg/kg/day): 232%; percentage of median survival time of test and control animals ([4]; 2.0 mg/kg/day): 130%; percentage of median survival time of test and control animals ([4]; 4.0 mg/kg/day): 143%; percentage of median survival time of test and control animals ([4]; 8.0 mg/kg/day): 152%
C/C=C/C=C/c1cc2cc3c(c(O)c2c(=O)[nH]1)C1(CC3)C(=O)c2c(OC(=O)CCCCCCCCCCC)c3c(c(OC(=O)CCCCCCCCCCC)c2C1=O)C(=O)C(OC)=CC3=O (centres unmarked) [Compound 7] | – | – | – | 1.56 (≈ 1.73 µM) | 25 (≈ 27.7 µM) | 104% | 96% | 194 | –
C/C=C/C=C/c1cc2cc3c(c(O)c2c(=O)[nH]1)C1(CC3)C(=O)c2c(OC(=O)CC)c3c(c(OC(=O)CC)c2C1=O)C(=O)C(OC)=CC3=O (centres unmarked) [Compound 4] | – | – | – | – | – | over 282% | over 288% | 50 | –
C/C=C/C=C/c1cc2cc3c(c(O)c2c(=O)[nH]1)C1(CC3)C(=O)c2c(OC(=O)c3ccc(OC)cc3)c3c(c(OC(=O)c4ccc(OC)cc4)c2C1=O)C(=O)C(OC)=CC3=O (centres unmarked) [Compound 10] | 105 | 171 | > 202 | 1.56 (≈ 1.93 µM) | 12.5 (≈ 15.5 µM) | – | – | – | –
